Source: patent US20250360171A1, “CHEMOGENETICALLY GATED ION CHANNELS AND USE THEREOF” (TECHNION RESEARCH & DEVELOPMENT FOUNDATION LIMITED, priority 2023, published 2025)

Columns and labels:
PSAM4-5HT3-HC channel = biological target: T1, PSAM4-5HT3-HC channel (Homo sapiens, UniProt P36544, L131G/M226I/Q139L/T225I/Y217F); assay: Voltage-clamp / membrane potential recordings of PSAM4-5HT3-HC-expressing hiPSC-CMs; format: cell-based; conditions: for effect on Varenicline-induced depolarizing current: picrotoxin 100 uM, partial antagonist of 5HT3-IPD
T1 construct: expressed in transfected cells
T1 sequence (P36544 with tags, fused parts or gaps L131G/Q139L/Y217F/T225I/M226I): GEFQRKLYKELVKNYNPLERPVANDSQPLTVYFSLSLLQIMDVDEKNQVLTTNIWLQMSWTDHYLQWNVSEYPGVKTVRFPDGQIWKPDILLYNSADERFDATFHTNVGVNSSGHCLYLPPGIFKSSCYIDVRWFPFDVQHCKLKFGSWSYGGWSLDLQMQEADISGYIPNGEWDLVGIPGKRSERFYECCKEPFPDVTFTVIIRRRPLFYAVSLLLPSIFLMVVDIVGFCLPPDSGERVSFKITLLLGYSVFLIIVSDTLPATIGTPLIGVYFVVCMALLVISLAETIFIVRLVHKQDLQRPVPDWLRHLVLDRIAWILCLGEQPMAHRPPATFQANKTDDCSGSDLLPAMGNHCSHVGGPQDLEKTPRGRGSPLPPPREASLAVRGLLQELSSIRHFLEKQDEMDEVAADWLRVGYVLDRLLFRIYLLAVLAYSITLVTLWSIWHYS
Excerpt: The synthetic chemogenetic channel PSAM4-5HT3-HC was created by fusing a mutated α7-nicotinic acetylcholine receptor (PSAM4, engineered to bind the anti-smoking drug Varenicline at sub-therapeutic concentrations) with the ion pore-domain (IPD) of the serotonin receptor 3A (5HT3) with additional mutations made for high conductance (HC) (SEQ ID NO: 12). This molecule was disclosed in Magnus, et al., “Ultrapotent chemogenetics for research and potential clinical applications”, Science, 2019 April 12;364 (6436), hercin incorporated by reference in its entirety. This molecule has only ever been used in neurons; however, it was hypothesized that it could also be employed in other electrically active cells. Specifically, it was hypothesized that expressing this chemogenetic channel in cardiomyocytes would permit dose-dependent modulation of their excitable properties; with weak depolarizing currents leading to increased automaticity, and larger currents causing depolarization-induced electrical silencing.
To test these hypotheses, healthy-donor human induced pluripotent stem cells (hiPSCs) were transfected with a non-viral, randomly integrating, transposon to create a stably engineered line constitutively expressing the PSAM4-5HT3-HC channel together with cGFP (FIG. 1).

[1] = test system: PSAM4-5HT3-hiPSC-CMs / control hiPSC-CMs co-culture; assay: Co-culture of PSAM4-5HT3-cGFP-hiPSC-CMs beside control hiPSC-CMs, optical mapping; format: cell-based, human
Protocol: We next created a co-culture model where the PSAM4-5HT3-cGFP-hiPSC-CMs were seeded beside control hiPSC-CMs (FIG. 4A).
Next, it was tested whether this chemogenetic approach could suppress tissue automaticity and excitability when using higher concentrations of Varenicline (100 nM), as it did in single cells, albeit at lower concentration. This dosing discrepancy probably stems from the more limited drug diffusion and the presence of stronger electrotonic coupling (attenuating Varenicline-induced depolarization) at the tissue level.

[2] = test system: control unmodified hiPSC-CMs; assay: Patch-clamp of control unmodified hiPSC-CMs; format: cell-based, human
Protocol: At higher doses (10 nM), spontaneous generation of action potentials (Aps) ceased (FIG. 2B). This suppression of excitability likely results from the significant membrane diastolic depolarization (−64±7 mV to −10±4 mV; p<0.0001; FIG. 2C) due to the large Varenicline-induced inward current (−6.8±3.2 pA/pF; p<0.01; FIG. 2C).

[3] = test system: rat hearts transplanted with chemogenetic hiPSC-CMs; assay: Optical mapping of Langendorff-perfused rat hearts engrafted with chemogenetic hiPSC-CMs; format: in vivo; conditions: 30 nM, adenosine-induced bradycardia, 7-10 days after transplantation, ex-vivo perfusion
Excerpt: (§1) Finally, chemogenetic hiPSC-CMs were transplanted into rat hearts. After 7-10 days, hearts were harvested, perfused ex-vivo using a custom-made Langendorff apparatus and optically mapped. Bradycardia was induced using adenosine.

[4] = test system: control (non-transplanted) rat hearts; assay: Optical mapping of Langendorff-perfused control (non-transplanted) rat hearts; format: in vivo; conditions: four control hearts, 30 nM with adenosine
Excerpt: as §1

[5] = test system: control, non-transfected, hiPSC-CCSs; assay: Optical mapping of control, non-transfected hiPSC-CCSs; format: cell-based, human; conditions: any dose
PSAM4-5HT3-hiPSC-CCS = assay: Optical mapping of PSAM4-5HT3-hiPSC-CCS tissue model; format: cell-based, human; conditions: 5-30 nM
Excerpt: To assess the translational potential of these findings, a hiPSC-derived cardiac cell-sheet (hiPSC-CCS) tissue model generated from PSAM4-5HT3-hiPSC-CMs was utilized (FIG. 3A). […] This augmented automaticity was the result of Varenicline-induced depolarizing currents in pacemaker cells driving activity of the cultures.

native CMs = assay: Coculture model: native (wild type) CMs; format: cell-based, human; conditions: 2-5 nM
Excerpt: (§2) To further illustrate the potential of this technology a coculture model of wild type CMs and CMs engineered to express the compound channel was generated (FIG. 8). In this model, only the CMs in the CCS between the two wild-type CCSs express the compound channel that is responsive to CNO. Reentrant arrhythmias were induced that spanned the whole model. […] As such, the arrhythmia became relegated to a single side of the model. That is an arrhythmia with a core in one CCS (for example the right one) become relegate to just that CCS upon application of CNO, while the other (left) CCS remained unaffected. It was further shown that the left CCS could be electrically paced, and conduction was successful until the wave front reaches the unexcitable engineered CMs. […] Thus, it is clear that native CMs are unaffected by CNO, but the genetically engineered CMs can be robustly ‘silenced’ by the application of CNO at very low concentrations (2-5 nM). Further, arrhythmias are succinctly terminated as a result of this silencing. Upon washout normal electrical activity resumed in the engineered CMs.

[6] = test system: CMs engineered to express the compound channel; assay: Coculture model: engineered CCS between two wild-type CCSs, reentrant arrhythmia; format: cell-based, human; conditions: 5 nM
Excerpt: as §2

[7] = test system: cardiac cell sheets expressing SthK and Rm3D; assay: Reentrant arrhythmia in cardiac cell sheets expressing SthK and Rm3D, optical mapping; format: cell-based, human
Excerpt: In order to express both the DREADD and the channel in the membrane of cardiomyocytes a vector encoding a single transcript was generated. The open reading frame for SthK was cloned downstream of the chicken B-actin promoter. Instead of a stop codon, at the end of SthK a P2A cleavable peptide was encoded followed by the Rm3D receptor in frame. The result is a reading frame (SEQ ID NO: 4) encoding an 874 amino acid construct (SEQ ID NO: 8) that is co-translationally cleaved near the end of the P2A peptide to produce separate SthK and Rm3D proteins from a single transcript.
Cardiac cell sheets (CCSs) were generated as a 2D tissue model from the transfected iPSC-CMs and the CCSs were loaded with an optical voltage-dependent dye and mapped using a high-speed EMCCD camera. […] Reentrant arrhythmias were induced by transient tachypacing, and the resultant arrhythmias were stable within the tissue (FIG. 7A). […] This was seen as an inability to excite the cells even with significant electrical stimulation. […] Furthermore, it was shown that a single washout of the drug led to rapid recovery of electrical excitability by electrical pacing (within 30-90 seconds of washout) and the spontaneous resumption of a normal rhythm (sinus) within 2-5 minutes, as would be expected after defibrillation/cardioversion (FIG. 7C). Thus, the arrythmias were successfully terminated upon application of CNO, and normal electrical activity returned almost immediately after washout.

With picrotoxin the “effect on Varenicline-induced depolarizing current” value (PSAM4-5HT3-HC channel) was “suppressing the depolarizing current” and the “effect on Varenicline-induced depolarizing current” value (PSAM4-5HT3-HC channel; listed as Picrotoxin) was “partially reversed”.

For `c1cnc2cc3c(cc2n1)[C@@H]1CNC[C@H]3C1` [Varenicline], the “excitability of the region containing non-transfected cells” value ([1]; 100 nM) was “retained its excitable properties”, the “spontaneous activity of the co-cultures” value ([1]; 100 nM) was “significantly slowed” and the “electrical activity in the PSAM4-5HT3-hiPSC-CMs area” value ([1]; 100 nM, in some specimens) was “complete silencing of electrical activity”. For the same compound, the “origin of spontaneous activity (pacemaker area)” value ([1]; baseline origin in control tissue) was “shifted the pacemaker area to the PSAM4-5HT3-HC tissue”, the automaticity of co-culture ([1]; escalating doses) was “augmented automaticity in a dose-dependent manner” and the “increase of spontaneous rhythm over baseline” value ([1]; rhythm arising from the PSAM4-5HT3-hiPSC-CMs) was > 6 fold. For the same compound, the “response to Varenicline” value [2] was “No response”, the “hearts developing ectopic ventricular activity from area of cell transplantation” value [3] was “four out of five” and the “shift in the activation pattern” value [4] was “did not occur”. The chronotropic effects [5] was “no chronotropic effects”, the “cultures' activation frequency” value (PSAM4-5HT3-hiPSC-CCS) was “dose-dependent increase” and the “spontaneous generation of action potentials” value (PSAM4-5HT3-HC channel; 10 nM) was “ceased”. The “membrane diastolic potential after Varenicline” value (PSAM4-5HT3-HC channel; depolarization from −64±7 mV, p<0.0001, 10 nM (FIG. 2)) was −10±4 mV, the Varenicline-induced inward current (PSAM4-5HT3-HC channel; p<0.01, FIG. 2C) was −6.8±3.2 pA/pF and the Varenicline-induced depolarizing currents (PSAM4-5HT3-HC channel; voltage-clamp, even at low concentrations (1 nM)) was “robust Varenicline-induced depolarizing currents”.

For `C[N+]1([O-])CCN(C2=Nc3cc(Cl)ccc3Nc3ccccc32)CC1` [CNO, clozapine-N-oxide], the “effect on native CMs” value (native CMs) was “unaffected”, the “conduction of arrhythmia across engineered cells” value [6] was “could no longer cross the engineered cells” and the “electrical activity of the CCS” value ([7]; 2-5 nM) was “rapid inactivation (silencing)”. For the same compound, the “termination of existing reentrant arrhythmias” value ([7]; 2-5 nM) was “sufficient to completely terminate existing arrhythmias”, the “time to recovery of electrical excitability by electrical pacing after washout” value ([7]; single washout) was 30 to 90 s and the “time to spontaneous resumption of a normal rhythm (sinus) after washout” value ([7]; single washout) was 2 to 5 min.
